Like-named read-outs stand apart in the source and are kept apart here.
Experiments:
[1] = test system: Gli-luciferase activity; assay: Reporter gene assay (RGA) in TMHh12 cells, antagonism of Gli-luciferase activity in the presence of a Smo agonist; type: cell-based
Protocol: Activity of the compounds was evaluated using a reporter gene assay (RGA) in TMHh12 cells.

[2] = target: mouse Smoothened receptor (Mus musculus, UniProt P56726); assay: Smo binding assay, displacement of radio-labeled smoothened agonist, filter binding format (mouse); conditions: displacement of small molecule agonist of Smoothened, read-out: Mouse Smo bdg., IC50
Chain of mouse Smoothened receptor (P56726 33-793): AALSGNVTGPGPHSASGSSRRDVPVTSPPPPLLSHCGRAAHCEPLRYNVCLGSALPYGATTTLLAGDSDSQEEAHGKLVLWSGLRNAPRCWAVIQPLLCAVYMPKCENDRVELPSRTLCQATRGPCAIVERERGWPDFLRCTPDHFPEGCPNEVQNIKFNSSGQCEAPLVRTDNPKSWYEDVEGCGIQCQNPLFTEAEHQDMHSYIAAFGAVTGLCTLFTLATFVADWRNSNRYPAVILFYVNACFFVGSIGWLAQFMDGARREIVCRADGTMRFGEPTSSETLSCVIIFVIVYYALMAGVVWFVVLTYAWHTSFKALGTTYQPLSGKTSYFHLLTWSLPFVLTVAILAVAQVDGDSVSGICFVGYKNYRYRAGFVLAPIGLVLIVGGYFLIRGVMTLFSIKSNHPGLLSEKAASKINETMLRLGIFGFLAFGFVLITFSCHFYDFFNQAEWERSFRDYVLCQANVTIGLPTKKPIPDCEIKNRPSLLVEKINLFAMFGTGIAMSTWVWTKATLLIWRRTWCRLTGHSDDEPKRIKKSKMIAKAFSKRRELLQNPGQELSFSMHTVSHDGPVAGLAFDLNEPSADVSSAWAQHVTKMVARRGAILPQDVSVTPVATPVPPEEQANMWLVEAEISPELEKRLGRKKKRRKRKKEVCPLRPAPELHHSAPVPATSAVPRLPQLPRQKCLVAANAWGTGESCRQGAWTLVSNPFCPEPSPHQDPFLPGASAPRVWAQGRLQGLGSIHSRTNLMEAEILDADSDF
Source text: A Smo binding assay was developed using radio-labeled smoothened agonist for compound competition.

[3] = target: human Smoothened receptor (Homo sapiens, UniProt Q99835); assay: Smo binding assay, displacement of radio-labeled smoothened agonist, filter binding format (human); conditions: displacement of small molecule agonist of Smoothened, read-out: Human Smo bdg., IC50
Chain of human Smoothened receptor (Q99835 28-787): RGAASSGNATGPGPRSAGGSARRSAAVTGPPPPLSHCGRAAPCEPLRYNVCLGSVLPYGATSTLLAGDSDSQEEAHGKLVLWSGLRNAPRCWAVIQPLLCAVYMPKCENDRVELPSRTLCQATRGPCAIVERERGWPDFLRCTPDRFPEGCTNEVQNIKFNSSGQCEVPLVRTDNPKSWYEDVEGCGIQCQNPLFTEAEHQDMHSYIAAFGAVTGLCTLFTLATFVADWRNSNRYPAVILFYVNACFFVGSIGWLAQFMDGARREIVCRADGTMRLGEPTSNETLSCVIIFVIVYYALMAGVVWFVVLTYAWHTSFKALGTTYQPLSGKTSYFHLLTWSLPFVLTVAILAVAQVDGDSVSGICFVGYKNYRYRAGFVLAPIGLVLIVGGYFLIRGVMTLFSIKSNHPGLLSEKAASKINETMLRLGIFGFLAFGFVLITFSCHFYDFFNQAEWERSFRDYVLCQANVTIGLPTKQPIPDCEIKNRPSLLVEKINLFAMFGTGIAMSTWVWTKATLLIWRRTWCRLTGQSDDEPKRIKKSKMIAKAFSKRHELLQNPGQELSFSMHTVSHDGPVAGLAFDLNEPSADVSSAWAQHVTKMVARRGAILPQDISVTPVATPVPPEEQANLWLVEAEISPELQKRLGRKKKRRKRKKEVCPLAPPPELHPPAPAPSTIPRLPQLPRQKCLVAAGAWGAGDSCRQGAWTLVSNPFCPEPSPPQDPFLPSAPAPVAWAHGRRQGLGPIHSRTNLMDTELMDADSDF
Source text: A Smo binding assay was developed using radio-labeled smoothened agonist for compound competition. Table 9 lists the IC50 for displacement of a small molecule agonist of Smoothened determined in a filter binding format for the mouse and human Smoothened receptor.

[4] = 25 nM small molecule Smo agonist, read-out: RGA (25 nM Smo agonist) IC50
[5] = read-out: RGA (1 nM Smo agonist) IC50, 1 nM small molecule Smo agonist

`CCOC(=O)c1cnc(N2CCN(c3nnc(Cc4ccccc4)c4ccccc34)CC2)nc1C(F)(F)F` [Example 137] was tested, and the IC50 [1, 4] was < 0.1 µM, the IC50 [1, 5] was < 0.1 µM and the IC50 [2] was < 0.1 µM. For the same compound, the IC50 [3] was < 0.1 µM.

In the case of `FC1(F)CCN(Cc2ccc(N3CCN(c4nnc(Cc5ccccc5)c5ccccc45)CC3)nc2)CC1` [Example 228], the IC50 [1, 4] is reported as 0.1 to 1 µM, the IC50 [1, 5] is reported as 0.1 to 1 µM and the IC50 [2] is reported as < 0.1 µM. For the same compound, the IC50 [3] was < 0.1 µM.

`CN(C)Cc1ccc(N2CCN(c3nnc(Cc4ccccc4)c4ccccc34)CC2)nc1` [Example 217, {6-[4-(4-Benzyl-phthalazin-1-yl)-piperazin-1-yl]-pyridin-3-ylmethyl}-dimethyl-amine] was tested, and the IC50 [1, 4] was 1 to 10 µM, the IC50 [1, 5] was < 0.1 µM and the IC50 [2] was 1 to 10 µM. For the same compound, the IC50 [3] was 1 to 10 µM.

With `CN(C)CC(=O)NCc1ccc(N2CCN(c3nnc(Cc4ccccc4)c4ccccc34)CC2)nc1` [Example 212] the IC50 [1, 4] was 0.1 to 1 µM, the IC50 [1, 5] was < 0.1 µM and the IC50 [2] was < 0.1 µM. The IC50 [3] was < 0.1 µM.

In the case of `c1ccc(Cc2nnc(N3CCN(c4ccc(CN(C5COC5)C5COC5)cn4)CC3)c3ccccc23)cc1` [Example 231], the IC50 [1, 4] is reported as < 0.1 µM, the IC50 [1, 5] is reported as < 0.1 µM and the IC50 [2] is reported as < 0.1 µM. For the same compound, the IC50 [3] was < 0.1 µM.

In the case of `CN(C)C(=O)Nc1ccc(N2CCN(c3nnc(Cc4ccccc4)c4ccccc34)CC2)nc1` [Example 238, 3-{6-[4-(4-Benzyl-phthalazin-1-yl)-piperazin-1-yl]-pyridin-3-yl}-1,1-dimethyl-urea], the IC50 [1, 4] is reported as 0.1 to 1 µM, the IC50 [1, 5] is reported as < 0.1 µM and the IC50 [2] is reported as 0.1 to 1 µM. The IC50 [3] was 0.1 to 1 µM.

An IC50 [1, 4] of 1 to 10 µM, an IC50 [1, 5] of 0.1 to 1 µM and an IC50 [2] of 1 to 10 µM were found for `NC1CN(C(=O)c2ccc(N3CCN(c4nnc(Cc5ccccc5)c5ccccc45)CC3)nc2)C1` [Example 54w] in this work. It also gave an IC50 [3] of 10 to 40 µM.

In the case of `CC(=O)c1ccc(N2CCN(c3nnc(Cc4ccccc4)c4ccccc34)CC2)nc1` [Example 134], the IC50 [1, 4] is reported as < 0.1 µM, the IC50 [1, 5] is reported as < 0.1 µM and the IC50 [2] is reported as < 0.1 µM. The IC50 [3] was < 0.1 µM.

For `Cc1cc(Cc2ccccc2)nnc1N1CCN(c2ccc(C(F)(F)F)cn2)CC1` [Example 88], the IC50 [1, 4] was 1 to 10 µM, the IC50 [1, 5] was < 0.1 µM and the IC50 [2] was 0.1 to 1 µM. The IC50 [3] was 0.1 to 1 µM.

In the case of `COC(=O)Nc1ccc(N2CCN(c3nnc(Cc4ccccc4)c4ccccc34)CC2)nc1` [Example 239, {6-[4-(4-Benzyl-phthalazin-1-yl)-piperazin-1-yl]-pyridin-3-yl}-carbamic acid methyl ester], the IC50 [1, 4] is reported as 0.1 to 1 µM, the IC50 [1, 5] is reported as < 0.1 µM and the IC50 [2] is reported as < 0.1 µM. It also gave an IC50 [3] of 0.1 to 1 µM.

An IC50 [1, 4] of 1 to 10 µM, an IC50 [1, 5] of 0.1 to 1 µM and an IC50 [2] of 0.1 to 1 µM were found for `FC(F)(F)c1ccc(N2CCC(c3cn(Cc4ccc(Br)cc4)c4ccccc34)CC2)nc1` [Example 99] in this work. For the same compound, the IC50 [3] was 0.1 to 1 µM.

An IC50 [1, 5] of 0.1 to 1 µM, an IC50 [2] of 0.1 to 1 µM and an IC50 [3] of 0.1 to 1 µM were found for `Cc1cc(N2CCN(c3ccc(C#N)cn3)CC2)nnc1Cc1ccc(F)cc1` [Example 85] in this work.

In the case of `C[C@H]1CN(c2ccc(C(C)(C)O)cn2)CCN1c1nnc(Cc2ccccc2)c2ccccc12` [Example 155], the IC50 [1, 4] is reported as < 0.1 µM, the IC50 [1, 5] is reported as < 0.1 µM and the IC50 [2] is reported as < 0.1 µM. The IC50 [3] was < 0.1 µM.

An IC50 [1, 4] of 1 to 10 µM, an IC50 [1, 5] of 0.1 to 1 µM and an IC50 [2] of 1 to 10 µM were found for `Fc1cnc(F)c(N2CCN(c3nnc(Cc4ccccc4)c4ccccc34)CC2)c1` [Example 51] in this work. For the same compound, the IC50 [3] was 1 to 10 µM.

`c1ccc(Cc2nnc(N3CCN(c4ccc(CNC5CCOCC5)cn4)CC3)c3ccccc23)cc1` [Example 225] was tested, and the IC50 [1, 4] was 0.1 to 1 µM, the IC50 [1, 5] was < 0.1 µM and the IC50 [2] was 0.1 to 1 µM. For the same compound, the IC50 [3] was 0.1 to 1 µM.

In the case of `COCC(=O)NCc1ccc(N2CCN(c3nnc(Cc4ccccc4)c4ccccc34)CC2)cc1` [Example 78b], the IC50 [1, 4] is reported as 0.1 to 1 µM, the IC50 [1, 5] is reported as < 0.1 µM and the IC50 [2] is reported as 0.1 to 1 µM. For the same compound, the IC50 [3] was 0.1 to 1 µM.

`COC(=O)c1cnc(N2CCN(c3nnc(Cc4ccccc4)c4ccccc34)CC2)cn1` [Example 138] was tested, and the IC50 [1, 4] was 0.1 to 1 µM, the IC50 [1, 5] was < 0.1 µM and the IC50 [2] was < 0.1 µM. For the same compound, the IC50 [3] was < 0.1 µM.

`CCOC(=O)c1ccc(N2CCN(c3nnc(Cc4ccccc4F)c4ccccc34)CC2)nc1` [Example 184] was tested, and the IC50 [1, 4] was 0.1 to 1 µM, the IC50 [1, 5] was 0.1 to 1 µM and the IC50 [2] was < 0.1 µM. The IC50 [3] was < 0.1 µM.

With `CCC(=O)NCc1ccc(N2CCN(c3nnc(Cc4ccccc4)c4ccccc34)CC2)nc1` [Example 207] the IC50 [1, 4] was 0.1 to 1 µM, the IC50 [1, 5] was < 0.1 µM and the IC50 [2] was 0.1 to 1 µM. For the same compound, the IC50 [3] was 0.1 to 1 µM.

An IC50 [1, 4] of 10 to 40 µM, an IC50 [1, 5] of 1 to 10 µM and an IC50 [2] of 1 to 10 µM were found for `O=C(c1ccc(C(F)(F)F)cc1)N1CCC(c2cn(Cc3ccc(F)cc3)c3ccccc23)CC1` [Example 104] in this work. For the same compound, the IC50 [3] was 1 to 10 µM.

With `CN(CCO)C(=O)c1ccc(N2CCN(c3nnc(Cc4ccc(F)cc4F)c4ccccc34)CC2)nc1` [Example 199] the IC50 [1, 4] was 0.1 to 1 µM, the IC50 [1, 5] was < 0.1 µM and the IC50 [2] was 0.1 to 1 µM. It also gave an IC50 [3] of 0.1 to 1 µM.

In the case of `OC1(c2ccc(N3CCN(c4nnc(Cc5ccccc5)c5ccccc45)CC3)nc2)COC1` [Example 111], the IC50 [1, 4] is reported as 0.1 to 1 µM, the IC50 [1, 5] is reported as < 0.1 µM and the IC50 [2] is reported as < 0.1 µM. It also gave an IC50 [3] of 0.1 to 1 µM.

An IC50 [1, 4] of 10 to 40 µM, an IC50 [1, 5] of 1 to 10 µM and an IC50 [2] of 0.1 to 1 µM were found for `COc1cc(=O)[nH]c(N2CCN(c3nnc(Cc4ccccc4)c4ccccc34)CC2)n1` [Example 46] in this work. It also gave an IC50 [3] of 0.1 to 1 µM.

For `CN(CCCO)C(=O)c1ccc(N2CCN(c3nnc(Cc4ccccc4)c4ccccc34)CC2)nc1` [Example 54t], the IC50 [1, 4] was 0.1 to 1 µM, the IC50 [1, 5] was < 0.1 µM and the IC50 [2] was < 0.1 µM. The IC50 [3] was 0.1 to 1 µM.

With `CCC(=O)NCc1ccc(N2CCN(c3nnc(Cc4ccccc4)c4ccccc34)CC2)cc1` [Example 78a] the IC50 [1, 4] was 0.1 to 1 µM, the IC50 [1, 5] was < 0.1 µM and the IC50 [2] was 0.1 to 1 µM. For the same compound, the IC50 [3] was 0.1 to 1 µM.

An IC50 [1, 4] of 1 to 10 µM, an IC50 [1, 5] of 0.1 to 1 µM and an IC50 [2] of 1 to 10 µM were found for `Cc1nc(N2CCN(c3nnc(Cc4ccccc4)c4ccccc34)CC2)ccc1C#N` [Example 130] in this work. The IC50 [3] was 1 to 10 µM.

`CC(C)(O)c1ccc(N2CCN(c3nnc(Cc4ccccc4Cl)c4ccccc34)CC2)nc1` [Example 192] was tested, and the IC50 [1, 4] was 0.1 to 1 µM, the IC50 [1, 5] was < 0.1 µM and the IC50 [2] was < 0.1 µM. For the same compound, the IC50 [3] was < 0.1 µM.

An IC50 [1, 4] of 0.1 to 1 µM, an IC50 [1, 5] of 0.1 to 1 µM and an IC50 [2] of 0.1 to 1 µM were found for `N#Cc1ccc(N2CCN(c3nnc(Cc4ccc(Cl)c(C(F)(F)F)c4)c4ccccc34)CC2)nc1` [Example 178] in this work. For the same compound, the IC50 [3] was 0.1 to 1 µM.

In the case of `CC(O)(CN1CCC(O)CC1)c1cnc(N2CCN(c3nnc(Cc4ccccc4)c4ccccc34)CC2)cn1` (stereo not drawn) [Example 170, 1-{2-[4-(4-Benzyl-phthalazin-1-yl)-3,4,5,6-tetrahydro-2H-[1,2′]bipyrazinyl-5′-yl]-2-hydroxy-propyl}-piperidin-4-ol], the IC50 [1, 4] is reported as 0.1 to 1 µM, the IC50 [1, 5] is reported as < 0.1 µM and the IC50 [2] is reported as 0.1 to 1 µM. It also gave an IC50 [3] of 0.1 to 1 µM.

In the case of `N#Cc1ccc(N2CCN(c3nnc(Cc4cccc(Br)c4)c4ccccc34)CC2)nc1` [Example 67], the IC50 [1, 4] is reported as 0.1 to 1 µM, the IC50 [1, 5] is reported as 0.1 to 1 µM and the IC50 [2] is reported as < 0.1 µM. For the same compound, the IC50 [3] was 0.1 to 1 µM.

An IC50 [1, 4] of 1 to 10 µM, an IC50 [1, 5] of 0.1 to 1 µM and an IC50 [2] of 0.1 to 1 µM were found for `C[C@@H]1CN(c2nnc(Cc3ccccc3)c3ccccc23)[C@@H](C)CN1c1ccc(C#N)cn1` [Example 119] in this work. The IC50 [3] was 0.1 to 1 µM.

With `Cc1cc(C)nc(N2CCN(c3nnc(Cc4ccccc4)c4ccccc34)CC2)n1` [Example 48] the IC50 [1, 4] was 1 to 10 µM, the IC50 [1, 5] was < 0.1 µM and the IC50 [2] was < 0.1 µM. The IC50 [3] was 0.1 to 1 µM.

With `COc1ccc(Cc2nnc(N3CCN(c4ccc(C#N)cn4)CC3)c3ccccc23)cc1` [Example 64] the IC50 [1, 4] was 1 to 10 µM, the IC50 [1, 5] was < 0.1 µM and the IC50 [2] was 0.1 to 1 µM. It also gave an IC50 [3] of 0.1 to 1 µM.

An IC50 [1, 4] of 1 to 10 µM, an IC50 [1, 5] of 0.1 to 1 µM and an IC50 [2] of 0.1 to 1 µM were found for `Cc1cc(Cc2ccc(Cl)cc2)nnc1N1CCN(c2ccc(C#N)cn2)CC1` [Example 92] in this work. It also gave an IC50 [3] of 0.1 to 1 µM.

From patent publication US8536168B2 (Novartis AG, priority 2007, dated 2013)
